Assay results: patent publication US20230016424A1, “HYBRID AMIDE DERIVATIVES OF AMPHOTERICIN B” (The Board of Trustees of the University of Illinois, priority 2019, published 2023)
≈ marks a conversion by molar mass, not a printed value. Read-outs that look alike come from different tables or passages of the source.

Tests used:
C. albicans = experiment: MIC; assay type: cell-based
[1] = UV-Vis sterol binding assay
Procedure: However, an alternative method was developed for reproducible formation of homogenous AmB and C2′epiAmB sterol sponge aggregates in vitro. Using these preparations, a quantitative UV-Vis and Principle Component (PCA) based assay for determining the apparent KDs for the binding of AmB and C2′epiAmB to ergosterol and cholesterol (FIGS. 5A-5D) was developed.
UV-Vis Binding Assay (FIG. 21A): The protocol for the sterol binding assay (UV-Vis) was developed in our lab. Compounds were dissolved in DMSO at a final concentration of 1 mM. Sterol were first dissolved in CHCl3 (>200 mM) and then diluted to 1 mM concentration with DMSO. To synthesize the complex 1 ul of compound solution was taken in a clean eppendorf tube (2 ml) and sterol solution (volume depends on the stoichiometry) was added to it and the volume was made up to 20 ul with DMSO. 0.98 ml of PBS buffer was added to the Eppendorf tube and mixed properly. The absorbance of the solution was measured after 30 mins of incubation.

A. fumigatus 1163 = experiment: MIC; assay type: cell-based
C. tropicalis = experiment: MIC; assay type: cell-based
C. krusei = experiment: MIC; assay type: cell-based
C. glabrata = experiment: MIC; assay type: cell-based
[2] = test system: C. albicans SN250, C. albicans, C. krusei, C. glabrata, C. tropicalis, A. fumigatus 91, 1163, 1100; experiment: Average MIC over the tested strains; assay type: cell-based; conditions: for MIC: average over the 8 listed strains; for Average MIC for AmB analogue: value of the corresponding AmB analogue, not of the C2’epi compound
C. albicans SN250 = experiment: MIC; assay type: cell-based, Candida albicans
A. fumigatus 91 = experiment: MIC; assay type: cell-based
human erythrocytes = experiment: MHC hemolysis assay; assay type: cell-based; conditions: hemolysis, human erythrocytes, 37° C. 2 hours
Procedure: MHC (FIG. 21B): The protocol for the hemolysis assay was adapted from the report of Paquet and coworkers (Chem. Eur. J. 2008, 14, 2465-2481). Whole human blood (sodium heparin) was purchased from Bioreclamation LLC (Westbury, N.Y.) and stored at 4° C. and used within two days of receipt. To a 2.0 mL eppendorf tube, 1 mL of whole human blood was added and centrifuged at 10,000 g for 2 minutes. The supernatant was removed and the erythrocyte pellet was washed with 1 mL of sterile saline and centrifuged at 10,000 g for 2 minutes. The saline wash was repeated for a total of three washes. The erythrocyte pellet was suspended in 1 mL of RBC buffer (10 mM NaH2PO4, 150 mM NaCl, 1 mM MgCl2, pH 7.4) to form the erythrocyte stock suspension.
Compounds were prepared as >15 mM stock solutions in DMSO and serially diluted to the following concentrations with DMSO: 7689, 5126, 2563, 2050, 1538, 1025, 769, 513, 384, 256, 205, 154, 103, 77, 51, 26 μM. To a 0.2 mL PCR tube, 24 μL of RBC buffer and 1 μL of compound stock solution were added, which gave final concentrations of […]. Positive and negative controls were prepared by adding 1 μL of DMSO to MilliQ water or RBC buffer, respectively to 0.2 mL PCR tube. To each PCR tube, 0.63 μL of the erythrocyte stock suspension was added and mixed by inversion. The samples were incubated at 37° C. for 2 hours. The samples were mixed by inversion and centrifuged at 10,000 g for 2 minutes. 15 μL of the supernatant from each sample was added to a 384-well place. Absorbances were read at 540 nm using a Biotek H1 Synergy Hybrid Reader (Wanooski, Vt.). Experiments were performed in triplicate and the reported MHC represents an average of three experiments.

A. fumigatus 1100 = experiment: MIC; assay type: cell-based
[3] = Liver Microsome stability (In Vitro Metabolism); assay type: in vitro ADME; conditions: for Remaining (T = NCF60 min): no cofactor 60 min
Procedure: Working Compound solution: 10 uM in 50 mM potassium phosphate buffer with 9% MeOH and 1% DMSO
Microsome solution: working concentration 0.625 mg/ml
Stopping solution: Cold ACN with 200 ng/ml Tolbutamide and 200 ng/ml Labetalol (4° C.)
Procedure: In the well plates (T5, T10, T20, T30, T60, NCF60 (no cofactor 60)) 10 uL of the compound/control working solution was added (except T0 and matric blank) followed by microsome solution (80 uL) and the mixture was incubated at 37 C for about 10 mins. A solution of potassium phosphate (10 ul of 50 mM) was added to NCF60 well, incubated at 37 C and time counting started. After prewarming 10 ul of NADPH regenerating solution was added to each plate to start the reaction. At different time point 300 uL/well of stopping solution to terminate the reaction. The sampling plates were shaken for 10 mins and the centrifuged for 20 mins at 4000 rpm. The supernatant was half diluted with ultra pure water and the analyzed using LCMS.

Plasma Stability = assay type: in vitro ADME
Procedure: Plasma Stability: Procedure: […] Plasma was warmed to 37° C. prior to the experiment and centrifuged for 5 mins at 4000 rpm. […] Each time point was monitored in triplicate (0, 10, 30, 60 and 120 min). 4 uL/well aliquot of the working solution was mixed to the blank plasma and incubated at 37° C. AT each time point samples were quenched with ACN stop solution containing 200 ng/ml Tolbutamide & 200 ng/ml Labetalol at 1:3 ratio and mix well on shaker for 10 min then centrifuge at 4000 rpm for 15 min. A 100 ul aliquot of supernatant was mixed with 100 μL of ultra-pure and submitted for LC-MS/MS analysis.

CYP2D6 = CYP2D6 (Homo sapiens, UniProt P10635); experiment: CYP Inhibition; conditions: human
Procedure: (§1) The working solutions of the test compounds and the standard inhibitors were prepared in DMSO (100× final concentration). 20 ul of substrate solution (5 in 1 cocktail) was added to the wells followed by 2 ul test compound solution was added. 158 ul of human liver microsome (HLM) was added to all the wells of the incubated plate and warmed to 37° C. for 10 mins. 20 ul of NADPH cofactor solution was then added to all the wells of incubated plate and incubated at 37° C. for 10 mins. At the time point the reaction was quenched by adding 400 uL of cold stop solution. The samples were centrifuged at 4000 rpm for 20 mins to precipitate protein. 100 ul supernatant was diluted with 100 ul of ultra pure water and analyzed using LCMS.

CYP2C9 = CYP2C9 (Homo sapiens, UniProt P11712); experiment: CYP Inhibition; conditions: human
Procedure: as §1

CYP2C9, sequence (P11712 whole entry): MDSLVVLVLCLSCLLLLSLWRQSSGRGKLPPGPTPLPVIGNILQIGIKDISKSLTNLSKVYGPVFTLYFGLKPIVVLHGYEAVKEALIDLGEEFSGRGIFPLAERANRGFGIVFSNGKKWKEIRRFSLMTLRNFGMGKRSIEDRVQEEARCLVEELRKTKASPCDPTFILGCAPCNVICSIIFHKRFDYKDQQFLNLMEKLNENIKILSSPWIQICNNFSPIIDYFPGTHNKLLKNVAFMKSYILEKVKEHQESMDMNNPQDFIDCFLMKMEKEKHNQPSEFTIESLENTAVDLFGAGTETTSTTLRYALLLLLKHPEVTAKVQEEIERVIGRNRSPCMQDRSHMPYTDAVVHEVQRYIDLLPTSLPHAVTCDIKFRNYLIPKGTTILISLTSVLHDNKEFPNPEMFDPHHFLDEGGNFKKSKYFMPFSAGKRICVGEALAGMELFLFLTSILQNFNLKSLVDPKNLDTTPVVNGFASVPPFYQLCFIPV
CYP2D6, sequence (P10635 whole entry): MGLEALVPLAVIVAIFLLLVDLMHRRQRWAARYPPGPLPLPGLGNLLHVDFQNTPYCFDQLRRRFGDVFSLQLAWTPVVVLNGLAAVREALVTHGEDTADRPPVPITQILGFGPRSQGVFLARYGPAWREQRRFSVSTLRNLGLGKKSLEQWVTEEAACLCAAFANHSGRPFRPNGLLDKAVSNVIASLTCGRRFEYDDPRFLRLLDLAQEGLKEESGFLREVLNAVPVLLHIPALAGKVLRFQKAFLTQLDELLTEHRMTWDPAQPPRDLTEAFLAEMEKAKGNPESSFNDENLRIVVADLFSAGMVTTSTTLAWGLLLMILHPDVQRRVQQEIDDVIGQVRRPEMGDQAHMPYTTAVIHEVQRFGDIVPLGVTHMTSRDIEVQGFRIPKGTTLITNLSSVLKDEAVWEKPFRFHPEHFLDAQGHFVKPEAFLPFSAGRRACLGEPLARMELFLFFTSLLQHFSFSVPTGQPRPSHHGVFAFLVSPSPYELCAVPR

CNC(=O)C1C(O)CC2(O)CC(O)CC(O)C(O)CCC(O)CC(O)CC(=O)OC(C)C(C)C(O)C(C)C=CC=CC=CC=CC=CC=CC=CC(OC3OC(C)C(O)C(N)C3O)CC1O2 (stereo not drawn) [BB]
MIC C. albicans (C. albicans): 0.5 µM (≈ 0.469 µg/mL) | Cholesterol Binding [1]: No | MIC A. fumigatus 1163 (A. fumigatus 1163): 4 µM (≈ 3.75 µg/mL) | MIC C. tropicalis (C. tropicalis): 0.5 µM (≈ 0.469 µg/mL) | MIC C. krusei (C. krusei): 2 µM (≈ 1.87 µg/mL) | MIC C. glabrata (C. glabrata): 0.375 µM (≈ 0.351 µg/mL) | MIC [2]: 1.734 µM | Average MIC for AmB analogue [2]: 0.336 μM | MIC C. albicans SN250 (C. albicans SN250): 0.5 µM (≈ 0.469 µg/mL) | MIC A. fumigatus 91 (A. fumigatus 91): 4 µM (≈ 3.75 µg/mL) | MHC (human erythrocytes): >500 µM | MIC A. fumigatus 1100 (A. fumigatus 1100): 2 µM (≈ 1.87 µg/mL)

CC1C=CC=CC=CC=CC=CC=CC=CC(OC2OC(C)C(O)C(N)C2O)CC2OC(O)(CC(O)CC(O)C(O)CCC(O)CC(O)CC(=O)OC(C)C(C)C1O)CC(O)C2C(=O)NCCN (stereo not drawn) [BC]
MIC C. albicans (C. albicans): 0.5 µM (≈ 0.483 µg/mL) | Cholesterol Binding [1]: Yes? | MIC A. fumigatus 1163 (A. fumigatus 1163): 2 µM (≈ 1.93 µg/mL) | MIC C. tropicalis (C. tropicalis): 0.5 µM (≈ 0.483 µg/mL) | MIC C. krusei (C. krusei): 4 µM (≈ 3.86 µg/mL) | MIC C. glabrata (C. glabrata): 0.5 µM (≈ 0.483 µg/mL) | MIC [2]: 1.750 µM | Average MIC for AmB analogue [2]: 0.563 μM | MIC C. albicans SN250 (C. albicans SN250): 0.5 µM (≈ 0.483 µg/mL) | MIC A. fumigatus 91 (A. fumigatus 91): 4 µM (≈ 3.86 µg/mL) | MHC (human erythrocytes): 250 µM | MIC A. fumigatus 1100 (A. fumigatus 1100): 2 µM (≈ 1.93 µg/mL)

CC1C=CC=CC=CC=CC=CC=CC=CC(OC2OC(C)C(O)C(N)C2O)CC2OC(O)(CC(O)CC(O)C(O)CCC(O)CC(O)CC(=O)OC(C)C(C)C1O)CC(O)C2C(=O)NCCO (stereo not drawn) [Compound AA]
MIC C. albicans (C. albicans): 0.225 µM (≈ 0.218 µg/mL) | MIC C. albicans (C. albicans; listed as AmBHEA): 0.225 µM (≈ 0.218 µg/mL) | MIC A. fumigatus 1163 (A. fumigatus 1163): 0.525 µM (≈ 0.508 µg/mL) | MIC A. fumigatus 1163 (A. fumigatus 1163; listed as AmBHEA): 0.525 µM (≈ 0.508 µg/mL) | MIC C. tropicalis (C. tropicalis): 0.225 µM (≈ 0.218 µg/mL) | MIC C. tropicalis (C. tropicalis; listed as AmBHEA): 0.225 µM (≈ 0.218 µg/mL) | MIC C. krusei (C. krusei): 0.45 µM (≈ 0.435 µg/mL) | MIC C. krusei (C. krusei; listed as AmBHEA): 0.45 µM (≈ 0.435 µg/mL) | MIC C. glabrata (C. glabrata): 0.145 µM (≈ 0.14 µg/mL) | MIC C. glabrata (C. glabrata; listed as AmBHEA): 0.145 µM (≈ 0.14 µg/mL) | MIC [2]: 0.44 µM | MIC ([2]; listed as AmBHEA): 0.44 µM | MIC C. albicans SN250 (C. albicans SN250): 0.25 µM (≈ 0.242 µg/mL) | CL ([3]; Dog liver microsomes): <9.6 µL/min/mg | CLint ([3]; Dog liver microsomes): <14 mL/min/kg | Remaining (T = 60 min) ([3]; Dog liver microsomes): 88.5% | T1/2 ([3]; Dog liver microsomes): >2.42 h | Remaining (T = NCF60 min) ([3]; Dog liver microsomes): 97.4% | CL ([3]; Human liver microsomes): <9.6 µL/min/mg | CLint ([3]; Human liver microsomes): <8.6 mL/min/kg | Remaining (T = 60 min) ([3]; Human liver microsomes): 111% | T1/2 ([3]; Human liver microsomes): >2.42 h | Remaining (T = NCF60 min) ([3]; Human liver microsomes): 142% | CL ([3]; Monkey liver microsomes): <9.6 µL/min/mg | CLint ([3]; Monkey liver microsomes): <13 mL/min/kg | Remaining (T = 60 min) ([3]; Monkey liver microsomes): 113% | T1/2 ([3]; Monkey liver microsomes): >2.42 h | Remaining (T = NCF60 min) ([3]; Monkey liver microsomes): 103% | CL ([3]; Mouse liver microsomes): <9.6 µL/min/mg | CLint ([3]; Mouse liver microsomes): <38 mL/min/kg | Remaining (T = 60 min) ([3]; Mouse liver microsomes): 118% | T1/2 ([3]; Mouse liver microsomes): >2.42 h | Remaining (T = NCF60 min) ([3]; Mouse liver microsomes): 140% | CL ([3]; Rat liver microsomes): <9.6 µL/min/mg | CLint ([3]; Rat liver microsomes): <17 mL/min/kg | Remaining (T = 60 min) ([3]; Rat liver microsomes): 130% | T1/2 ([3]; Rat liver microsomes): >2.42 h | Remaining (T = NCF60 min) ([3]; Rat liver microsomes): 113% | MIC A. fumigatus 91 (A. fumigatus 91): 1 µM (≈ 0.967 µg/mL) | MIC A. fumigatus 91 (A. fumigatus 91; listed as AmBHEA): 1 µM (≈ 0.967 µg/mL) | MIC A. fumigatus 1100 (A. fumigatus 1100): 0.7 µM (≈ 0.677 µg/mL) | MIC A. fumigatus 1100 (A. fumigatus 1100; listed as AmBHEA): 0.7 µM (≈ 0.677 µg/mL) | % Remaining at 120 min (Plasma Stability; Human Plasma): 119% | Half Life (Plasma Stability; Human Plasma): >4.82 h | % Remaining at 120 min (Plasma Stability; Rat Plasma): 108% | Half Life (Plasma Stability; Rat Plasma): >4.82 h

C=C[C@H]1C[N@@]2CC[C@H]1C[C@@H]2[C@@H](O)c1ccnc2ccc(OC)cc12 [Quinidine, reference compound]
inhibition at 10 min, 3 µM (CYP2D6): 95.3%

Nc1ccc(S(=O)(=O)Nc2ccnn2-c2ccccc2)cc1 [Sulfaphenazole, reference compound]
inhibition at 10 min, 3 µM (CYP2C9): 69.7%
